Assay results: ChEMBL document CHEMBL1933032, “Synthesis and evaluation of 4-alkoxy-[1'-cyclobutyl-spiro(3,4-dihydrobenzopyran-2,4'-piperidine)] analogues as histamine-3 receptor antagonists” (Bioorg Med Chem Lett, 2012)

Key:
Histamine H3 receptor [1] = biological target: Histamine H3 receptor (Rattus norvegicus, UniProt Q9QYN8); test: Binding affinity to rat histamine H3 receptor
Histamine H3 receptor [2] = biological target: Histamine H3 receptor (Homo sapiens, UniProt Q9Y5N1); test: Binding affinity to human histamine H3 receptor
[3] = Cmax in rat at 5 mg/kg, po; assay type: ADME, organism-based; design: dose 5 mg/kg, route oral; conditions: in vivo
[4] = Half life in rat liver microsomes; assay type: ADME, Microsome
[5] = Half life in monkey liver microsomes; assay type: ADME, Macaca mulatta, Microsome; conditions: rhesus monkey
Cytochrome P450 2D6 = Cytochrome P450 2D6 (Homo sapiens, UniProt P10635); test: Inhibition of CYP2D6; assay type: ADME
[6] = Clearance in rat at 1 mg/kg, iv; assay type: ADME, organism-based; design: dose 1 mg/kg, route intravenous; conditions: in vivo
Histamine H1 receptor = Histamine H1 receptor (Homo sapiens, UniProt P35367); test: Binding affinity to human histamine H1 receptor
[7] = Half life in human liver microsomes; assay type: ADME, Microsome
[8] = Half life in rat at 1 mg/kg, iv; assay type: ADME, organism-based; design: dose 1 mg/kg, route intravenous; conditions: in vivo
[9] = Oral bioavailability in rat at 5 mg/kg; assay type: ADME, organism-based; conditions: in vivo
[10] = Ratio drug uptake in brain to plasma of rat at 5 mg/kg, po measured after 6 hrs; assay type: ADME, organism-based; design: dose 5 mg/kg, route oral; conditions: read-out: BPR
[11] = AUC (0 to t) in rat at 5 mg/kg, po; assay type: ADME, organism-based; design: dose 5 mg/kg, route oral; conditions: plasma
Histamine H4 receptor = Histamine H4 receptor (Homo sapiens, UniProt Q9H3N8); test: Binding affinity to human histamine H4 receptor
Histamine H2 receptor = Histamine H2 receptor (Homo sapiens, UniProt P25021); test: Binding affinity to human histamine H2 receptor
[12] = Half life in mouse liver microsomes; assay type: ADME, Microsome
[13] = Volume of distribution in rat at 1 mg/kg, iv; assay type: ADME, organism-based; design: dose 1 mg/kg, route intravenous; conditions: in vivo
Cytochrome P450 2C9 = Cytochrome P450 2C9 (Homo sapiens, UniProt P11712); test: Inhibition of CYP2C9; assay type: ADME
Cytochrome P450 2C19 = Cytochrome P450 2C19 (Homo sapiens, UniProt P33261); test: Inhibition of CYP2C19; assay type: ADME
Cytochrome P450 3A4 = Cytochrome P450 3A4 (Homo sapiens, UniProt P08684); test: Inhibition of CYP3A4; assay type: ADME
Cytochrome P450 1A2 = biological target: T1, Cytochrome P450 1A2 (Homo sapiens, UniProt P05177); test: Inhibition of CYP1A2; assay type: ADME
T1 sequence (P05177 whole entry): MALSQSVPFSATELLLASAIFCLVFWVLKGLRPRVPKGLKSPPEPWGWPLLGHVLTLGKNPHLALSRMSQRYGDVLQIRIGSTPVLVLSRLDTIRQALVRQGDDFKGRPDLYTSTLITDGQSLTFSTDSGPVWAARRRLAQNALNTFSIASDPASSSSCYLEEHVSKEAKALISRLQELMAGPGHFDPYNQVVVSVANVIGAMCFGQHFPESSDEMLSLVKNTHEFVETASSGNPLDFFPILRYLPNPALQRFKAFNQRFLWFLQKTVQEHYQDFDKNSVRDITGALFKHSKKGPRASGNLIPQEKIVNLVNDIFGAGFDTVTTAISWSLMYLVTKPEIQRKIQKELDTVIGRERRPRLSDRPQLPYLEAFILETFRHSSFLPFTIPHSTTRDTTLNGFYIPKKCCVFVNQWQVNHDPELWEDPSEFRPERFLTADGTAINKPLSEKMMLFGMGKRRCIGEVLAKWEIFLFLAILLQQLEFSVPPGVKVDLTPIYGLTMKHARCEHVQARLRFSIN

[14] = biological target: T2, Alpha-2C adrenergic receptor (Homo sapiens) (UniProt P18825); test: Inhibition of adrenergic Alpha-2C receptor at 10 uM
T2 sequence (whole entry): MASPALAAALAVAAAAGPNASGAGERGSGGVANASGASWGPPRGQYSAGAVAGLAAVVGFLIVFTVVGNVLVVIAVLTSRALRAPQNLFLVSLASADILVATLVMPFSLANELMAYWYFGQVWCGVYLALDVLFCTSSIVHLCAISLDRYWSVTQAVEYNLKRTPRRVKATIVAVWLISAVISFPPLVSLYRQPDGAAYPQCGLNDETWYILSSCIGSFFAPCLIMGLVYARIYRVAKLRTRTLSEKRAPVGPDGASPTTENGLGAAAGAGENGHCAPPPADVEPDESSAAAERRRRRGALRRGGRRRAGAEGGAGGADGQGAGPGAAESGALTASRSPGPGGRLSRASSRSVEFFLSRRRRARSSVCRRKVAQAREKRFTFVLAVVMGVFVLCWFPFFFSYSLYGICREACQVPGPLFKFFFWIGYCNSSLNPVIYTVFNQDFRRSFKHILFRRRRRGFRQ

[15] = Fraction unbound in rat brain homogenate; assay type: ADME, tissue-based
Rattus norvegicus = test: Inhibition of RAMH-induced dipsogenia in rat at 3 mg/kg, po; assay type: functional
[16] = Plasma protein binding in human; assay type: ADME, cell-free; conditions: read-out: PPB (converted)
[17] = Inhibition of nACh receptor at 10 uM
[18] = Plasma protein binding in rat; assay type: ADME, cell-free; conditions: read-out: PPB (converted)
[19] = biological target: T3, Alpha-1D adrenergic receptor (Homo sapiens) (UniProt P25100); test: Inhibition of adrenergic Alpha-1D receptor at 10 uM
T3 sequence (whole entry): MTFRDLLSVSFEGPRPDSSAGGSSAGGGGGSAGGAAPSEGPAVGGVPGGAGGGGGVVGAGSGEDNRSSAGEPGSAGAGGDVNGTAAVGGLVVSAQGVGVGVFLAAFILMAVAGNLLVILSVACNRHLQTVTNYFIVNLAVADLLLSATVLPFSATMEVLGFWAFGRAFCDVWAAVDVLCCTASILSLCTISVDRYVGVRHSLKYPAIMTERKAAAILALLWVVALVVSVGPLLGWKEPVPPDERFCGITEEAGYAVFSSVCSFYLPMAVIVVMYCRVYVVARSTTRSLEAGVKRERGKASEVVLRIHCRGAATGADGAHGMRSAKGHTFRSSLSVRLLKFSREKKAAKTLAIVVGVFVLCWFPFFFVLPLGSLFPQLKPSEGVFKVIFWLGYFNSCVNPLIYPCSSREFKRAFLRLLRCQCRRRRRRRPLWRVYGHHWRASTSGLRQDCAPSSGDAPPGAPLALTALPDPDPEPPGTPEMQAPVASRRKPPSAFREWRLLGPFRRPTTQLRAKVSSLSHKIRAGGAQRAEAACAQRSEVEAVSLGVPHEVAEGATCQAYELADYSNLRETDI

Chain of Histamine H1 receptor (P35367 whole entry): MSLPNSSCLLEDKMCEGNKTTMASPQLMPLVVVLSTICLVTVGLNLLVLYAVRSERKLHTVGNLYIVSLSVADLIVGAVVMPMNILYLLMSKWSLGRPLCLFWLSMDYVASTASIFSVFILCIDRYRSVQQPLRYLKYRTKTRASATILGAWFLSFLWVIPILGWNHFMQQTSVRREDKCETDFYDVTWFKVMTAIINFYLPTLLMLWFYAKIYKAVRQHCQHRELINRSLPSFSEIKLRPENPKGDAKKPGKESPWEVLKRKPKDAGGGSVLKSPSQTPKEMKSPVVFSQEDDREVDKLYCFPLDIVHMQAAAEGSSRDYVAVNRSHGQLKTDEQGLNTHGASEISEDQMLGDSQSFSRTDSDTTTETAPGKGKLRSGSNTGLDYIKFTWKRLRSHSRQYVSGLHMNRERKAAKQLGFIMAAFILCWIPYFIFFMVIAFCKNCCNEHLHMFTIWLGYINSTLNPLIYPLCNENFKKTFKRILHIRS
Chain of Histamine H2 receptor (P25021 whole entry): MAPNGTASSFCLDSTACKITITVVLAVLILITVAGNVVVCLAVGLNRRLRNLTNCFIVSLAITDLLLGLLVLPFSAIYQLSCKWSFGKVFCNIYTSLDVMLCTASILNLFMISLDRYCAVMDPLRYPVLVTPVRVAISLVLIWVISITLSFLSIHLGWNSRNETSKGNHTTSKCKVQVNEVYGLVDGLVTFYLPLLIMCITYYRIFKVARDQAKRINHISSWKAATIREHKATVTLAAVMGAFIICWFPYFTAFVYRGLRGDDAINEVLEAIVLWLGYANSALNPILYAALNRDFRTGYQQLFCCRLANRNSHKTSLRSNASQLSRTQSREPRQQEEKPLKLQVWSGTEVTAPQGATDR
Chain of Histamine H3 receptor (Rattus norvegicus, UniProt Q9QYN8) (Q9QYN8 whole entry): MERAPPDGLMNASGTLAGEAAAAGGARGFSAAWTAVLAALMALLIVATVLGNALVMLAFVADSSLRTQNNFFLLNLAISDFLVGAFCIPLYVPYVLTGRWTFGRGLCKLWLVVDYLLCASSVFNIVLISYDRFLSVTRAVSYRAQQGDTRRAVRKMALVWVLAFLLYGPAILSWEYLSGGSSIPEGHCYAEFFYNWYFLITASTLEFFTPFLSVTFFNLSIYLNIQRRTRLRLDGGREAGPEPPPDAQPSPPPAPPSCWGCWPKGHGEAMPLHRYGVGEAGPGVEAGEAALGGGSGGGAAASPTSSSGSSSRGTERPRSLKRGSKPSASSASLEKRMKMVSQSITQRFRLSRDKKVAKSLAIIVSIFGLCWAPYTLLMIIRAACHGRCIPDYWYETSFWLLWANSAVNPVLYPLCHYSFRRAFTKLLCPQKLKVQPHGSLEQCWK
Chain of Cytochrome P450 2D6 (P10635 whole entry): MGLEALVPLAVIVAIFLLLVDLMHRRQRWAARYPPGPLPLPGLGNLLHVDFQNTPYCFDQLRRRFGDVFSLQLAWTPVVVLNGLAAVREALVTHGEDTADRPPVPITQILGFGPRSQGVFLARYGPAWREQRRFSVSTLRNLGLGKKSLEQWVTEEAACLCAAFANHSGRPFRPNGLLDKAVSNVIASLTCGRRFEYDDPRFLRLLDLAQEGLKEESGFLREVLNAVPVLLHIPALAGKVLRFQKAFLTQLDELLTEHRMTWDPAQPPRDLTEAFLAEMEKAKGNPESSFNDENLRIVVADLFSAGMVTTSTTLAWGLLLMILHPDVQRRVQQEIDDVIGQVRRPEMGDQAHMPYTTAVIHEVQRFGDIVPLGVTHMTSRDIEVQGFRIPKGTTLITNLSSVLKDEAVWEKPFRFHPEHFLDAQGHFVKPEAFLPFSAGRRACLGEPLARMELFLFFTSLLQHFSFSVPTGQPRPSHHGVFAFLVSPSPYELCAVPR
Chain of Histamine H3 receptor (Homo sapiens, UniProt Q9Y5N1) (Q9Y5N1 whole entry): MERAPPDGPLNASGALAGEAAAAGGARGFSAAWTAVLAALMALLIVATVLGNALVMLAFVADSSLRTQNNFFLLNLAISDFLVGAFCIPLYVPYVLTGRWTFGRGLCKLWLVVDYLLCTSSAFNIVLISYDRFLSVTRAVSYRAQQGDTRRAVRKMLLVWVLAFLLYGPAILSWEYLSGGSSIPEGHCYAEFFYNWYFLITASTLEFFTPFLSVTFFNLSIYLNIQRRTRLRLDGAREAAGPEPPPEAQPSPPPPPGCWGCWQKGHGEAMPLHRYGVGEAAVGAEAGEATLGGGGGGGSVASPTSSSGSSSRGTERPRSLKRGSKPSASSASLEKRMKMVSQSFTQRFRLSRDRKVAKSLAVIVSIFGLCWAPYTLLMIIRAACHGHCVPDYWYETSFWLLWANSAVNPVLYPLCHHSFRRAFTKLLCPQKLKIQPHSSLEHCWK
Chain of Histamine H4 receptor (Q9H3N8 whole entry): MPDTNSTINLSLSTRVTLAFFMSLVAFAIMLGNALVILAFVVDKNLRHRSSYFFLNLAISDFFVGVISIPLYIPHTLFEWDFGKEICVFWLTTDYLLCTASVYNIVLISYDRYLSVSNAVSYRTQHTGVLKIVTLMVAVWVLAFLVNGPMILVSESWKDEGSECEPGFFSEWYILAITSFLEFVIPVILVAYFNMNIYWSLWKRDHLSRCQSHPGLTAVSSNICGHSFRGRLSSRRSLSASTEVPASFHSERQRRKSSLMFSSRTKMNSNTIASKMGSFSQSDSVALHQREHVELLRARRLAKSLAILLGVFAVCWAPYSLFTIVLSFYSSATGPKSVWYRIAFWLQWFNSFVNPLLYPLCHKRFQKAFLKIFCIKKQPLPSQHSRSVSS
Chain of Cytochrome P450 2C9 (P11712 whole entry): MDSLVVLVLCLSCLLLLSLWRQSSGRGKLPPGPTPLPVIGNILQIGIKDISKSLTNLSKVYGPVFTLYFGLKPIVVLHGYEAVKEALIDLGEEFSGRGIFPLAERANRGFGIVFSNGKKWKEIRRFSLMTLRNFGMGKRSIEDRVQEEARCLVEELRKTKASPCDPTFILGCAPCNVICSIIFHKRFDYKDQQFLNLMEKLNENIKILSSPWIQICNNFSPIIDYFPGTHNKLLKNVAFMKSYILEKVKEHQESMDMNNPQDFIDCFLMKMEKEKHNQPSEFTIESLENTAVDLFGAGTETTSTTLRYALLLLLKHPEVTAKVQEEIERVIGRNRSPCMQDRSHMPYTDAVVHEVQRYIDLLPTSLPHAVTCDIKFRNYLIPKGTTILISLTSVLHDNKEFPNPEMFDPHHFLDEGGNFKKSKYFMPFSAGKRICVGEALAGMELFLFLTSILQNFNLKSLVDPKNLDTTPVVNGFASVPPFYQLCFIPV
Chain of Cytochrome P450 3A4 (P08684 whole entry): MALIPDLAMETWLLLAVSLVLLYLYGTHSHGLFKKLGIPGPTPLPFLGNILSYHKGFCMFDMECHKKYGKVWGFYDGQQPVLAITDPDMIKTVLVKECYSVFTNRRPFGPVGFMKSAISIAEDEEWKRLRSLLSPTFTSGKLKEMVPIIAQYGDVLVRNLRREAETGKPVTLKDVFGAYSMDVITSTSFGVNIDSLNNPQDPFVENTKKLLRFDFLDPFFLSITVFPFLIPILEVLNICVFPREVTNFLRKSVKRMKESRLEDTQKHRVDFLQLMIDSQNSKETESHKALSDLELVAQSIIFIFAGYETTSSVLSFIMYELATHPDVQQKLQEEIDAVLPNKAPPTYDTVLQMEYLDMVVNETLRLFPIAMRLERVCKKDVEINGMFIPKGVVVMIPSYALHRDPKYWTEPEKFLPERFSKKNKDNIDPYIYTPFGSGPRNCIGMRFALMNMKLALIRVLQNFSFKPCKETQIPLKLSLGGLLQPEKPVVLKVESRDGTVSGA
Chain of Cytochrome P450 2C19 (P33261 whole entry): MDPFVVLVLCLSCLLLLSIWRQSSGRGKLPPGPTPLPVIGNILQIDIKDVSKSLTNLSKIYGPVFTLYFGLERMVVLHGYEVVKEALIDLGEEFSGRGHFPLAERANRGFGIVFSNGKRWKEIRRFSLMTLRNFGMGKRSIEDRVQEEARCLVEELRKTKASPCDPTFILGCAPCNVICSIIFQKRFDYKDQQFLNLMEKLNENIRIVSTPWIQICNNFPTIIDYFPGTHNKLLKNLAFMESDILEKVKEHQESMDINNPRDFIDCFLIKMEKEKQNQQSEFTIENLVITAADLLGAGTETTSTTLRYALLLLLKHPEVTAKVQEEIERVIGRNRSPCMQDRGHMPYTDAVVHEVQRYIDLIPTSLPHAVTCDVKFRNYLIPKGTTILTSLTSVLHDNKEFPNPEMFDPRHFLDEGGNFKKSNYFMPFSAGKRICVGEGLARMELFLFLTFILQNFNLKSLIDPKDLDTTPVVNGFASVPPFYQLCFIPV

c1cc2c(cc1OCC1CCCO1)CCC1(CCN(C3CCC3)CC1)O2 (stereo not drawn)
Ki (Histamine H3 receptor [1]): 50 nM
Ki (Histamine H3 receptor [2]): 16 nM

CC(C)(O)COc1ccc2c(c1)CCC1(CCN(C3CCC3)CC1)O2
Ki (Histamine H3 receptor [1]): 74 nM
Ki (Histamine H3 receptor [2]): 18 nM

CSCCCOc1ccc2c(c1)CCC1(CCN(C3CCC3)CC1)O2
Ki (Histamine H3 receptor [1]): 64 nM
Ki (Histamine H3 receptor [2]): 15 nM

O=S1(=O)CCC(Oc2ccc3c(c2)CCC2(CCN(C4CCC4)CC2)O3)C1 (stereo not drawn)
Ki (Histamine H3 receptor [1]): 44 nM
Ki (Histamine H3 receptor [2]): 23 nM

c1cc2c(cc1OC1CCOCC1)CCC1(CCN(C3CCC3)CC1)O2
Ki (Histamine H3 receptor [1]): 42 nM
Ki (Histamine H3 receptor [2]): 15 nM

c1cc2c(cc1O[C@H]1CCOC1)CCC1(CCN(C3CCC3)CC1)O2
Ki (Histamine H3 receptor [1]): 39 nM
Ki (Histamine H3 receptor [2]): 15 nM

CC[C@H](O)COc1ccc2c(c1)CCC1(CCN(C3CCC3)CC1)O2
Ki (Histamine H3 receptor [1]): 112 nM
Ki (Histamine H3 receptor [2]): 26 nM

CC[C@@H](O)COc1ccc2c(c1)CCC1(CCN(C3CCC3)CC1)O2
Ki (Histamine H3 receptor [1]): 86 nM
Ki (Histamine H3 receptor [2]): 15 nM

c1cc2c(cc1OC1CCSC1)CCC1(CCN(C3CCC3)CC1)O2 (stereo not drawn)
Ki (Histamine H3 receptor [1]): 42 nM
Ki (Histamine H3 receptor [2]): 17 nM

COCCOc1ccc2c(c1)CCC1(CCN(C3CCC3)CC1)O2
Ki (Histamine H3 receptor [1]): 91 nM
Ki (Histamine H3 receptor [2]): 42 nM

c1cc2c(cc1O[C@@H]1CCOC1)CCC1(CCN(C3CCC3)CC1)O2
Ki (Histamine H3 receptor [1]): 119 nM
Ki (Histamine H3 receptor [2]): 27 nM

c1cc2c(cc1OC1CCSCC1)CCC1(CCN(C3CCC3)CC1)O2
Ki (Histamine H3 receptor [1]): 62 nM
Ki (Histamine H3 receptor [2]): 23 nM

CSCCOc1ccc2c(c1)CCC1(CCN(C3CCC3)CC1)O2
Ki (Histamine H3 receptor [1]): 86 nM
Ki (Histamine H3 receptor [2]): 38 nM

c1cc2c(cc1OCC1CCOC1)CCC1(CCN(C3CCC3)CC1)O2 (stereo not drawn)
Ki (Histamine H3 receptor [1]): 49 nM
Ki (Histamine H3 receptor [2]): 18 nM

CS(=O)(=O)CCOc1ccc2c(c1)CCC1(CCN(C3CCC3)CC1)O2
Ki (Histamine H3 receptor [1]): 157 nM
Ki (Histamine H3 receptor [2]): 39 nM

CC(O)COc1ccc2c(c1)CCC1(CCN(C3CCC3)CC1)O2 (stereo not drawn)
Ki (Histamine H3 receptor [1]): 99 nM
Ki (Histamine H3 receptor [2]): 25 nM

O=S1(=O)CCC(COc2ccc3c(c2)CCC2(CCN(C4CCC4)CC2)O3)CC1
Cmax [3]: 157 ng/mL
half-life [4]: > 40 min
half-life [5]: > 40 min
IC50 (Cytochrome P450 2D6): 11000 nM
clearance [6]: 23 mL/min/kg
Ki (Histamine H1 receptor): > 10000 nM
half-life [7]: > 40 min
Ki (Histamine H3 receptor [1]): 9 nM
half-life [8]: 114 min
Ki (Histamine H3 receptor [2]): 4 nM
bioavailability [9]: 22%
Kp at 6 h [10]: 0.73
AUC(0-t) [11]: 713 ng·h/mL
Ki (Histamine H4 receptor): > 10000 nM
Ki (Histamine H2 receptor): > 10000 nM
half-life [12]: > 40 min
Vd [13]: 3.6 L/kg

CS(=O)(=O)CCCOc1ccc2c(c1)CCC1(CCN(C3CCC3)CC1)O2
Cmax [3]: 142 ng/mL
half-life [4]: > 40 min
half-life [5]: > 40 min
IC50 (Cytochrome P450 2D6): > 30000 nM
clearance [6]: 16 mL/min/kg
Ki (Histamine H1 receptor): > 10000 nM
half-life [7]: > 40 min
IC50 (Cytochrome P450 2C9): > 30000 nM
Ki (Histamine H3 receptor [1]): 41 nM
half-life [8]: 54 min
Ki (Histamine H3 receptor [2]): 10 nM
IC50 (Cytochrome P450 2C19): > 30000 nM
bioavailability [9]: 13%
Kp at 6 h [10]: 0.73
AUC(0-t) [11]: 586 ng·h/mL
Ki (Histamine H4 receptor): > 10000 nM
IC50 (Cytochrome P450 3A4): > 30000 nM
IC50 (Cytochrome P450 1A2): > 30000 nM
Ki (Histamine H2 receptor): > 10000 nM
half-life [12]: > 40 min
Vd [13]: 1.2 L/kg

c1cc2c(cc1OCC1CCSCC1)CCC1(CCN(C3CCC3)CC1)O2
Ki (Histamine H3 receptor [1]): 48 nM
Ki (Histamine H3 receptor [2]): 12 nM

OCCOc1ccc2c(c1)CCC1(CCN(C3CCC3)CC1)O2
Ki (Histamine H3 receptor [1]): 368 nM
Ki (Histamine H3 receptor [2]): 126 nM

O=S1(=O)CCC(Oc2ccc3c(c2)CCC2(CCN(C4CCC4)CC2)O3)CC1
inhibition [14]: 78%
Cmax [3]: 460 ng/mL
half-life [4]: > 40 min
half-life [5]: > 40 min
fraction unbound [15]: 0.27
IC50 (Cytochrome P450 2D6): 6600 nM
clearance [6]: 19 mL/min/kg
Ki (Histamine H1 receptor): > 10000 nM
inhibition in vivo at 3 mg/kg (Rattus norvegicus): 61%
half-life [7]: > 40 min
Ki (Histamine H3 receptor [1]): 24 nM
half-life [8]: 102 min
Ki (Histamine H3 receptor [2]): 7 nM
fraction unbound [16]: 0.23
bioavailability [9]: 48%
Kp at 6 h [10]: 1
AUC(0-t) [11]: 1790 ng·h/mL
Ki (Histamine H4 receptor): > 10000 nM
inhibition [17]: 63%
fraction unbound [18]: 0.27
Ki (Histamine H2 receptor): > 10000 nM
inhibition [19]: 50%
half-life [12]: > 40 min
Vd [13]: 2.8 L/kg
